Measurements as given in PubChem BioAssay AID330 (DTP/NCI, 2004).
Inconclusive results and toxic doses are left out. How the source made its calls: active means survival T/C of 150% or more; inactive means T/C below 125% in these data.

Test system: P388 leukemia ip, CD2F1 mice, survival T/C
Assay: NCI In Vivo Anticancer Drug Screen. Data for tumor model P388 Leukemia (intraperitoneal) in CD2F1 (CDF1) mice
Conditions: endpoint: median survival time, higher = longer survival
Summary of the method: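 Mice carrying the transplanted tumor received test compound or vehicle. Survival was recorded in each group, and the value is the treated-group measurement divided by that of the vehicle-treated control group.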

Measured: T/C

Cc1oc2ccccc2c(=O)c1C(=O)O
inactive: dose: 50.0 mg/kg/injection, schedule: Q01DX005 (ip), vehicle: Klucel (hydroxypropylcellulose) (HPC) 99 % of control | dose: 100.0 mg/kg/injection, schedule: Q01DX005 (ip), vehicle: Klucel (hydroxypropylcellulose) (HPC) 100 % of control | dose: 200.0 mg/kg/injection, schedule: Q01DX005 (ip), vehicle: Klucel (hydroxypropylcellulose) (HPC) 101 % of control

Cc1ccc[n+](CCC(N)=O)c1
inactive: dose: 100.0 mg/kg/injection, schedule: Q04DX003 (ip), vehicle: saline 100 % of control | dose: 200.0 mg/kg/injection, schedule: Q04DX003 (ip), vehicle: saline 100 % of control | dose: 400.0 mg/kg/injection, schedule: Q04DX003 (ip), vehicle: saline 95 % of control

CCCCN1CCC2(C)c3cc(O)ccc3CC1C2CC (centres undefined)
inactive: dose: 7.5 mg/kg/injection, schedule: Q01DX005 (ip), vehicle: Klucel (hydroxypropylcellulose) (HPC) 101 % of control | dose: 15.0 mg/kg/injection, schedule: Q01DX005 (ip), vehicle: Klucel (hydroxypropylcellulose) (HPC) 100 % of control | dose: 30.0 mg/kg/injection, schedule: Q01DX005 (ip), vehicle: Klucel (hydroxypropylcellulose) (HPC) 97 % of control
